Test results reported in ChEMBL document CHEMBL1201862, “PubChem BioAssay data set” (2004).
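A five-concentration, 48-hour dose response in 96-well plates underlies each endpoint, interpolated linearly between surrounding concentrations. GI50 is the concentration that inhibits growth by half.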 Active and inactive are the calls of the source. Cut-off read from the data, not from the text of the source: active = GI50 up to about 1.1 µM and inactive = higher.

Legend:
Test in all cases: NCI-60 cell line screen, 48 h
HOP-62 = test system: HOP-62
MCF7 = test system: MCF7
SW-620 = test system: SW-620
DU-145 = test system: DU-145
KM12 = test system: KM12
Hs-578T = test system: Hs-578T
Malme-3M = test system: Malme-3M
OVCAR-5 = test system: OVCAR-5
T47D = test system: T47D
U-251 = test system: U-251
A498 = test system: A498
SF-539 = test system: SF-539
NCI-H226 = test system: NCI-H226
M14 = test system: M14
UACC-62 = test system: UACC-62
RPMI-8226 = test system: RPMI-8226
SK-MEL-5 = test system: SK-MEL-5
SR = test system: SR
EKVX = test system: EKVX
K562 = test system: K562

| Structure (SMILES) | GI50 (HOP-62) | GI50 (MCF7) | GI50 (SW-620) | GI50 (DU-145) | GI50 (KM12) | GI50 (Hs-578T) | GI50 (Malme-3M) | GI50 (OVCAR-5) | GI50 (T47D) | GI50 (U-251) | GI50 (A498) | GI50 (SF-539) | GI50 (NCI-H226) | GI50 (M14) | GI50 (UACC-62) | GI50 (RPMI-8226) | GI50 (SK-MEL-5) | GI50 (SR) | GI50 (EKVX) | GI50 (K562) |
| --- | --- | --- | --- | --- | --- | --- | --- | --- | --- | --- | --- | --- | --- | --- | --- | --- | --- | --- | --- | --- |
| C[C@H]1[C@H](C)CC[C@]2(C(=O)OC3OC(CO)C(O)C(O)C3O)CC[C@]3(C)C(=CC[C@@H]4[C@@]5(C)C[C@@H](O)[C@@H]6OC(=O)c7cc(O)c(O)c(O)c7-c7c(cc(O)c(O)c7O)C(=O)OC[C@]6(CO)[C@@H]5CC[C@]43C)[C@H]12 (stereo not given in full) | 30.9 µM (inactive) | 7.1 µM (inactive) | 27.4 µM (inactive) | > 100 µM (inactive) | 24.2 µM (inactive) | > 100 µM (inactive) | > 100 µM (inactive) | > 67.9 µM (inactive) | 42.7 µM (inactive) | 16.4 µM (inactive) | > 100 µM (inactive) | > 100 µM (inactive) | 67.8 µM (inactive) | 97.9 µM (inactive) | 70.6 µM (inactive) | 66.7 µM (inactive) | 39.8 µM (inactive) | 17.3 µM (inactive) | 36.7 µM (inactive) | 45.7 µM (inactive) |
| C[C@@H]1CC[C@@]2(OC1)O[C@H]1C[C@H]3[C@@H]4CC[C@H]5C[C@@H](OC6OC(CO)C(OC7OC(CO)C(O)C(OC8OCC(O)C(O)C8O)C7OC7OC(CO)C(O)C(O)C7O)C(O)C6O)[C@H](O)C[C@]5(C)[C@H]4CC[C@]3(C)[C@H]1[C@@H]2C (stereo not given in full) | 1.42 µM (inactive) | 0.804 µM (active) | 4.19 µM (inactive) | 2.42 µM (inactive) | 8 µM (inactive) | 5.75 µM (inactive) | 15.2 µM (inactive) | 4.76 µM (inactive) | 5.38 µM (inactive) | 3.13 µM (inactive) | 7.89 µM (inactive) | 2.69 µM (inactive) | 6.47 µM (inactive) | 15.2 µM (inactive) | 20 µM (inactive) | 1.85 µM (inactive) | 9.84 µM (inactive) | 14.3 µM (inactive) | 5.35 µM (inactive) | 2.11 µM (inactive) |
| Cc1ccc2c(c1)C(=O)C1(C2)Cc2cccc(C)c2C1=O (stereo not given) | 88.9 µM (inactive) | > 100 µM (inactive) | > 100 µM (inactive) | > 100 µM (inactive) | > 100 µM (inactive) | > 100 µM (inactive) | > 100 µM (inactive) | > 100 µM (inactive) | > 100 µM (inactive) | > 100 µM (inactive) | > 100 µM (inactive) | > 100 µM (inactive) | > 100 µM (inactive) | > 100 µM (inactive) | 77.3 µM (inactive) | > 100 µM (inactive) | > 100 µM (inactive) | > 100 µM (inactive) | > 100 µM (inactive) | > 100 µM (inactive) |
| COc1ccc(/N=N\c2c(N)nn3c(SC)c(C#N)c(N)nc23)cc1 | 22.3 µM (inactive) | 2.4 µM (inactive) | 4.6 µM (inactive) | 5.52 µM (inactive) | 15.1 µM (inactive) | 2.52 µM (inactive) | 16.2 µM (inactive) | 17.6 µM (inactive) | 1.85 µM (inactive) | 5.43 µM (inactive) | 11.1 µM (inactive) | 19 µM (inactive) | 21.4 µM (inactive) | 12.6 µM (inactive) | 5.71 µM (inactive) | 2.92 µM (inactive) | 16.1 µM (inactive) | 2.44 µM (inactive) | 3.93 µM (inactive) | 2.16 µM (inactive) |
| CCCCCCCCCCCC[C@H](O)[C@H]1CC[C@H]([C@H](O)CCCC[C@H](O)CCCCC[C@@H](O)CC2=C[C@H](C)OC2=O)O1 | 6.3 µM (inactive) | 1.4 µM (inactive) | 2.75 µM (inactive) | 9.42 µM (inactive) | 3.51 µM (inactive) | 5.43 µM (inactive) | 17.9 µM (inactive) | 17.7 µM (inactive) | 4.14 µM (inactive) | 13.8 µM (inactive) | 4.58 µM (inactive) | 15.3 µM (inactive) | 2.84 µM (inactive) | 3.45 µM (inactive) | 1.19 µM (inactive) | > 10 µM (inactive) | 1.75 µM (inactive) | 2.82 µM (inactive) | 1.6 µM (inactive) | 1.23 µM (inactive) |
| C=C1C(=O)OC2C1C(OC(=O)/C(C)=C/C)CC(O)(CCl)C1C(O)C3OC3(C)C21O (stereo not given) | > 50 µM (inactive) | 18.2 µM (inactive) | 13.4 µM (inactive) | > 50 µM (inactive) | > 50 µM (inactive) | > 50 µM (inactive) | 0.735 µM (active) | > 50 µM (inactive) | 23.8 µM (inactive) | > 50 µM (inactive) | > 50 µM (inactive) | > 50 µM (inactive) | > 50 µM (inactive) | 23.3 µM (inactive) | 34.6 µM (inactive) | 16.1 µM (inactive) | 28.2 µM (inactive) | 17 µM (inactive) | > 50 µM (inactive) | 18 µM (inactive) |
